Patent publication US20240415825A1, “COMPOUNDS FOR THE TREATMENT OF MALARIA” (FUNDACIÓ INSTITUT DE BIOENGINYERIA DE CATALUNYA, priority 2021, published 2024)
Read-outs that look alike come from different tables or passages of the source.

Tests used:
P. falciparum 3D7 strain = assay: P. falciparum growth inhibition assay (3D7 strain); assay type: cell-based, Plasmodium falciparum
Description: After the synchronization process, a new culture at 1.5% parasitemia and 2% hematocrit was established and 150 μL aliquots of it were transferred to 96-well plates.
The required amounts of peptides, antimalarial compounds and dyes were added in each well at different concentrations and in triplicates. A positive growth control of untreated parasites and a negative growth control of parasites treated with a lethal dose of chloroquine (1 μM) were also included.
Parasites were grown for 48 h, a complete replication cycle, in standard culturing conditions (5% O2, 5% CO2, and 90% N2 at 37° C.). After the incubation period, 3 μL of culture from each well were mixed with 197 μL of PBS containing 0.1 μM Syto 11 (Thermo Fisher Scientific Inc), to obtain a final concentration of ca. 1-10×10^6 cells/ml.
Parasitemia was assessed by flow cytometry using a LSRFortessa flow cytometer (BD Biosciences, San Jose, CA, USA) set up with the 4 lasers, 20 parameters standard configuration. The single-cell population was selected on a forward-side scatter scattergram.
Growth inhibition was calculated taking as reference values both the growth rate of the untreated culture and the growth rate of the culture treated with chloroquine.

[1] = test system: human umbilical vein endothelial cell cultures; assay: Cytotoxicity (CC50) and in vitro therapeutic index; assay type: cell-based; conditions: 50% cytotoxic concentration (CC50)/IC50 in 3D7 strain
[2] = Plasmodium falciparum, 3D7 strain, Example 8, read-out: IC50 in 3D7 strain

| SMILES | antimalarial / antiplasmodial activity in vitro (P. falciparum 3D7 strain; 3D7 strain) | IC50 (P. falciparum 3D7 strain; [2]) [µM] | also measured |
| --- | --- | --- | --- |
| Nc1c(/N=N/c2ccc(-c3ccc(/N=N/c4cc(S(=O)(=O)[O-])c5ccccc5c4N)cc3)cc2)cc(S(=O)(=O)[O-])c2ccccc12.[Na+].[Na+] [Congo Red, reference compound] | did not exhibit significant antiplasmodial activity | – | IC50 (P. falciparum 3D7 strain; 3D7 strain, 48 h, Table 2, read-out: IC50 in 3D7 strain (μM) ± SEM): > 15 µM |
| O=C(NCNc1c2c(nc3cc(Cl)ccc13)CCCC2)c1ccc2nc(-c3ccc(Cl)cc3)c3c(c2c1)NCCC3 [DP128, reference compound] | – | – | IC50 (P. falciparum 3D7 strain; Plasmodium falciparum, 3D7, 48 h, read-out: IC50 in 3D7 strain (μM) ± SEM): 0.65 ± 0.14 µM; Therapeutic index in vitro [1]: 75.4 |
| Cc1c[n+](CCCCCCCCCC[n+]2ccc(/C=C/c3ccc(N(C)C)cc3)c(C)c2)ccc1/C=C/c1ccc(N(C)C)cc1.[Br-].[Br-] [EMA357, 1,1′-(decane-1,10-diyl)bis{4-[(E)-4-(dimethylamino)styryl]-3-methylpyridin-1-ium} dibromide] | potent antimalarial activity | 0.12 | – |
| Cc1c[n+](CCCCCCCCCC[n+]2ccc(/C=C/c3ccc(N(C)CCC#N)cc3)c(C)c2)ccc1/C=C/c1ccc(N(C)CCC#N)cc1.[Br-].[Br-] [EMA359, 1,1′-(decane-1,10-diyl)bis{4-{(E)-4-[(2-cyanoethyl)methylamino]styryl}-3-methylpyridin-1-ium} dibromide] | potent antimalarial activity | 0.11 | – |
| Cc1c[n+](CCCCCCCCCC[n+]2ccc(/C=C/c3ccc(N(c4ccccc4)c4ccccc4)cc3)c(C)c2)ccc1/C=C/c1ccc(N(c2ccccc2)c2ccccc2)cc1 [EMA366, 1,1′-(decane-1,10-diyl)bis{4-[(E)-4-(diphenylamino)styryl]-3-methylpyridin-1-ium} dibromide] | – | 0.52 | – |
| Cc1c[n+](CCCCCCCCCC[n+]2ccc(/C=C/c3ccc(N4CCCC4)cc3)c(C)c2)ccc1/C=C/c1ccc(N2CCCC2)cc1 [EMA368, 1,1′-(decane-1,10-diyl)bis{3-methyl-4-[(E)-4-(pyrrolidin-1-yl)styryl]pyridin-1-ium} dibromide] | – | 0.29 | – |
| Cc1c[n+](CCCCCCCCCC[n+]2ccc(/C=C/c3ccc(N4CCOCC4)cc3)c(C)c2)ccc1/C=C/c1ccc(N2CCOCC2)cc1.[Br-].[Br-] [EMA377, 1,1′-(decane-1,10-diyl)bis{3-methyl-4-[(E)-4-morpholinostyryl]pyridin-1-ium} dibromide] | potent antimalarial activity | 0.06 | – |
| CCN(CC)c1ccc(/C=C/c2cc[n+](CCCC[n+]3ccc(/C=C/c4ccc(N(CC)CC)cc4)c(C)c3)cc2C)cc1 [PRC-5, 1,1′-(butane-1,4-diyl)bis{4-[(E)-4-(diethylamino)styryl]-3-methylpyridin-1-ium} dibromide] | – | 0.42 | – |
| CCN(CC)c1ccc(/C=C/c2cc[n+](CCCCCCCC[n+]3ccc(/C=C/c4ccc(N(CC)CC)cc4)c(C)c3)cc2C)cc1.[Br-].[Br-] [PRC-8, 1,1′-(octane-1,8-diyl)bis{4-[(E)-4-(diethylamino)styryl]-3-methylpyridin-1-ium} dibromide] | potent antimalarial activity | 0.14 | – |
| CCN(CC)c1ccc(/C=C/c2cc[n+](CCCCCCCCCCC[n+]3ccc(/C=C/c4ccc(N(CC)CC)cc4)c(C)c3)cc2C)cc1.[Br-].[Br-] [PRC-14, 1,1′-(undecane-1,11-diyl)bis{4-[(E)-4-(diethylamino)styryl]-3-methylpyridin-1-ium} dibromide] | potent antimalarial activity | 0.06 | – |
| CCN(CC)c1ccc(/C=C/c2cc[n+](CCCCCCCCCCCC[n+]3ccc(/C=C/c4ccc(N(CC)CC)cc4)c(C)c3)cc2C)cc1.[Br-].[Br-] [PRC-15, 1,1′-(dodecane-1,12-diyl)bis{4-[(E)-4-(diethylamino)styryl]-3-methylpyridin-1-ium} dibromide] | potent antimalarial activity | 0.06 | – |
| CCN(CC)c1ccc(/C=C/c2cc[n+](CCOCCOCC[n+]3ccc(/C=C/c4ccc(N(CC)CC)cc4)c(C)c3)cc2C)cc1 [PRC-20, 1,1′-(3,6-dioxaoctane-1,8-diyl)bis{4-[(E)-4-(diethylamino)styryl]-3-methylpyridin-1-ium} diiodide] | – | 0.2 | – |
| CCN(CC)c1ccc(/C=C/c2cc[n+](CCCCCCCCC[n+]3ccc(/C=C/c4ccc(N(CC)CC)cc4)c(C)c3)cc2C)cc1.[Br-].[Br-] [PRC-25, 1,1′-(nonane-1,9-diyl)bis{4-[(E)-4-(diethylamino)styryl]-3-methylpyridin-1-ium} dibromide] | potent antimalarial activity | 0.05 | IC50 (P. falciparum 3D7 strain; Plasmodium falciparum, 3D7 strain, read-out: IC50 in P. falciparum in vitro cultures): 0.047 µM |
| CCN(CC)c1ccc(/C=C/c2cc[n+](CCOCCOCCOCC[n+]3ccc(/C=C/c4ccc(N(CC)CC)cc4)c(C)c3)cc2C)cc1 [PRC-28, 1,1′-(3,6,9-trioxaundecane-1,11-diyl)bis{4-[(E)-4-(diethylamino)styryl]-3-methylpyridin-1-ium} dichloride] | – | 0.25 | – |
| CCN(CC)c1ccc(/C=C/c2cc[n+](Cc3ccc(C[n+]4ccc(/C=C/c5ccc(N(CC)CC)cc5)c(C)c4)cc3)cc2C)cc1 [PRC-29, 1,1′-[1,4-phenylenebis(methylene)]bis{4-[(E)-4-(diethylamino)styryl]-3-methylpyridin-1-ium} dibromide] | – | 0.46 | – |
| CCN(CC)c1ccc(/C=C/c2cc[n+](Cc3cccc(C[n+]4ccc(/C=C/c5ccc(N(CC)CC)cc5)c(C)c4)c3)cc2C)cc1 [PRC-31, 1,1′-[1,3-phenylenebis(methylene)]bis{4-[(E)-4-(diethylamino)styryl]-3-methylpyridin-1-ium} dibromide] | – | 0.54 | – |
| CCN(CC)c1ccc(/C=C/c2cc[n+](CCCCCCCCCC[n+]3ccc(/C=C/c4ccc(N(CC)CC)cc4)cc3)cc2)cc1.[Br-].[Br-] [PRC-39, 1,1′-(decane-1,10-diyl)bis{4-[(E)-4-(diethylamino)styryl]pyridin-1-ium} dibromide] | potent antimalarial activity | 0.15 | – |
| CCN(CC)c1ccc(/C=C/c2cc[n+](CCCCCCCCCC[n+]3ccc(/C=C/c4ccc(N(CC)CC)cc4)c(Br)c3)cc2Br)cc1.[Br-].[Br-] [PRC-42, 1,1′-(decane-1,10-diyl)bis{3-bromo-4-[(E)-4-(diethylamino)styryl]pyridin-1-ium} dibromide] | potent antimalarial activity | 0.1 | – |
| CCN(CC)c1ccc(/C=C/c2cc[n+](CCCCCCCCCC[n+]3ccc(/C=C/c4ccc(N(CC)CC)cc4)c(Cl)c3)cc2Cl)cc1.[Br-].[Br-] [PRC-50, 1,1′-(decane-1,10-diyl)bis{3-chloro-4-[(E)-4-(diethylamino)styryl]pyridin-1-ium} dibromide] | potent antimalarial activity | 0.1 | – |
| Cc1ccc2c(c1)sc(-c1ccc(N(C)C)cc1)[n+]2C.[Cl-] [ThT, Thioflavin T, reference compound] | did not exhibit significant antiplasmodial activity | – | IC50 (P. falciparum 3D7 strain; Plasmodium falciparum, 3D7 strain, 48 h, Table 2, read-out: IC50 in 3D7 strain (μM) ± SEM): 1.57 ± 0.23 µM |
